Earlier results on 24 molecules are cited in US5786344A, “Camptothecin drug combinations and methods with reduced side effects” (priority 1995, dated 1998).

“Also recorded” adds a separate entry of the source. Counter-ions that a name gives are not always drawn. Like-named read-outs stand apart in the source and are kept apart here. Some results are limits rather than exact numbers.

As usually defined, the half-life is the time in which the quantity being followed falls by half.

One data set concerns tumors. The note with it: preclinical and clinical tumors; cited from earlier work.
Data set [1] concerns multidrug resistant (MDR) cells. The following applies: cited from earlier work.
For data set [2] the following is noted: cited from earlier work; for plasma concentration: single dose 600 mg.
Data set [3] concerns p-glycoprotein. The note with it: cited from earlier work; for inhibition of photoaffinity labeling of p-glycoprotein: photolabeling.
For a further data set, the system named is plasma proteins. The following applies: cited from earlier work.
The conditions of data set [4]: cited from earlier work.
The subject of data set [5] is outwardly-rectifying chloride channel. The note with it: 50 μM; cited from earlier work.
Data set [6] relates to p-glycoprotein. The following applies: hydrochloride, cited from earlier work.
Setting [7] is: listed as Trifluoperazine, dihydrochloride.

For `CC[C@@]1(O)C(=O)OCc2c1cc1n(c2=O)Cc2cc3c(N)cccc3nc2-1` [9-AC, 9-amino-20(s)-camptothecin], the “antitumor activity” value in the data set with tumors was “significant activity of 9-AC against colon cancer”.
On to `CCN(CC)CCCC(C)Nc1ccnc2cc(Cl)ccc12` (centres unmarked) [Chloroquine], for which the “reversal of drug resistance” value in data set [1] is reported as “partially reverses drug resistance”.
As for `COc1ccc([C@@H]2Sc3ccccc3N(CCN(C)C)C(=O)[C@@H]2OC(C)=O)cc1` [Diltiazem, benzothiazepin-4(5H)-one, 3-(acetyloxy)-5-[2-(dimethylamino)ethyl]-2,3-dihydro-2-(4-methoxyphenyl)-,(+) -cis-, monohydrochloride], in data set [2] (human, in vivo, po), the “bioavailability / dose reaching the systemic circulation” value is listed as 40-60% and the oral absorption is 80%. Moreover, in data set [2] (human, in vivo), the “excreted unchanged (urine)” value was “Less than 4%” and the half-life result is listed as “about 4 hr”. In the data set on p-glycoprotein [3], the “inhibition of / interaction with p-glycoprotein” value is reported as “p-glycoprotein inhibitor”. Moreover, in the data set with plasma proteins (plasma), the plasma protein binding was 70-80%.
On to `OCCN1CCN(CCCN2c3ccccc3Sc3ccc(C(F)(F)F)cc32)CC1` [Fluphenazine hydrochloride], for which, in data set [4] (human, in vivo), the onset of action was at most 1 h and the “potency relative to chlorpromazine / other phenothiazines” value is “more potent”. The duration of action in data set [4] (oral or intramuscular) was 6 h. Moreover, in data set [2] (oral), the “oral absorption” value was “absorbed rapidly”.
For `Cc1ccc(C)c(OCCCC(C)(C)C(=O)O)c1` [Gemfibrozil], the “potency relative to clofibrate” value in data set [4] (human, in vivo) was “more potent than clofibrate”. Moreover, the plasma concentration entry in data set [2] (after 2 hours) was “about 15 μg/ml”; in data set [2] (after 9 hours), about 5000 ng/mL.
Take `CCOC(=O)C1=C(C)NC(C)=C(C(=O)OC)C1c1cccc([N+](=O)[O-])c1` (centres unmarked) [Nitrendipine, 3,5-Pyridinedicarboxylic acid, 1,4-dihydro-2,6-dimethyl-4-(3-nitrophenyl)-, ethyl methyl ester]: in data set [2] (human, in vivo, po), the “bioavailability / dose reaching the systemic circulation” value is on record as 10-22%. For the same molecule, the “half-life, average or usual” value in data set [2] (human, in vivo) is about 12 h. Moreover, the plasma protein binding result with plasma proteins (plasma) is “About 98%”.
In the case of `CC(C)NCC(O)COc1cccc2ccccc12` (centres unmarked) [Propranolol], in data set [2] (human, in vivo, po), the “bioavailability / dose reaching the systemic circulation” value is “about 25%” and the “inter-individual variability in plasma concentrations” value is given as “approximately 20 fold”. Besides, in data set [2] (human, in vivo), the “CNS / blood-brain barrier penetration” value is on record as “readily enters the CNS” and the volume of distribution was 4 L/kg. For the same molecule, the “oral absorption” value in data set [2] (oral) is “almost complete absorbed”. The “reversal of drug resistance” value in data set [1] is on record as “partially reverse drug resistance”. Moreover, the plasma protein binding result in the data set with plasma proteins (plasma) is on record as “Approximately 90%”.
`CC(C)(C)c1ccc(C(O)CCCN2CCC(C(O)(c3ccccc3)c3ccccc3)CC2)cc1` (stereo not drawn) [Terfenadine, 1-Piperidinebutanol, α-[4-(1,1-dimethylethyl)phenyl]-4-(hydroxydiphenylmethyl)-]: the clinical toxicity entry in data set [4] (human, in vivo) is listed as “relatively low toxicity profile”. In addition, in data set [2] (human, in vivo, po), the peak plasma levels was 1.5 to 4.5 ng/mL. For the same molecule, in data set [2] (human, in vivo), the distribution half-life is 3.5 h and the half-life was 16 to 23 h. The “oral absorption” value in data set [2] (oral) was “absorbed rapidly and almost completely”. Besides, the “drug accumulation and efflux in MDR lines” value in data set [1] (MDR lines) was “augments the accumulation of doxorubicin and inhibits the effluxof rhodamine 123”. In data set [1] (sensitive cells), the “drug accumulation or efflux in sensitive cells” value was “no effect”. The plasma protein binding with plasma proteins (plasma) is recorded as 97%.
Take `CSc1ccc2c(c1)N(CCC1CCCCN1C)c1ccccc1S2` (centres unmarked) [Thioridazine, 10H-Phenothiazine, 10-[2-(1-methyl-2-piperidinyl)ethyl]-2-(methylthio)-]: in data set [2] (human, in vivo), the “half-life, early phase” value is 4 to 10 h and the “half-life, late phase” value is 26 to 36 h. Further, the plasma protein binding in the data set on plasma proteins (plasma) is listed as 96-99%.
`C[C@@H]1C[C@H]2[C@@H]3CCC4=CC(=O)C=C[C@]4(C)C3=CC[C@]2(C)[C@H]1C(=O)CN1CCN(c2cc(N3CCCC3)nc(N3CCCC3)n2)CC1` [Tirilazad]: in the data set on p-glycoprotein [3], the “inhibition of / interaction with p-glycoprotein” value was “potent inhibitors” and the “inhibition of photoaffinity labeling of p-glycoprotein” value is listed as “more effectively than does verapamil”. The “sensitivity of nonresistant parental cells” value in data set [1] (nonresistant parental cells) is given as “does not change the sensitivity of nonresistant parental cells”. For the same molecule, the “sensitization of resistant cells to killing by vinblastine” value in data set [1] (resistant cells) was 66 fold.
Take `CN(C)CCCN1c2ccccc2Sc2ccc(C(F)(F)F)cc21` [Triflupromazine hydrochloride, 1OH-Phenothiazine-10-propanamine, N,N-dimethyl-2-(trifluoromethyl)-monohydrochloride]: the “potency relative to chlorpromazine / other phenothiazines” value in data set [4] (human, in vivo) is “somewhat more potent”.
Take `CC(C)(Oc1ccc(CCNC(=O)c2ccc(Cl)cc2)cc1)C(=O)O` [bezafibrate]: the “potency relative to clofibrate” value in data set [4] (human, in vivo) is given as “more potent than clofibrate”.
For `CN(C)CCCN1c2ccccc2Sc2ccc(Cl)cc21` [chlorpromazine], the “inhibition of photoaffinity labeling of p-glycoprotein” value in the data set on p-glycoprotein [3] is reported as “poor inhibitors”. The “reversal of drug resistance” value in data set [1] was “effectively reverse multidrug resistance”.
For `CC(C)(Oc1ccc(C2CC2(Cl)Cl)cc1)C(=O)O` (centres unmarked) [ciprofibrate], the “potency relative to clofibrate” value in data set [4] (human, in vivo) is “more potent than clofibrate”.
Turning to `OCCN1CCN(CC/C=C2/c3ccccc3Sc3ccc(C(F)(F)F)cc32)CC1` [cis-flupenthixol], the “reversal of drug resistance” value in data set [1] was “reversed cellular resistance to various drugs only in p-glycoprotein expressing cell lines”.
As for `CC(C)(Oc1ccc(Cl)cc1)C(=O)O` [clofibric acid], in data set [2] (human, in vivo), the fraction metabolized result is recorded as “About 60%”; the half-life was 6 to 25 h; the half-life in anuria entry is given as “over 100 hr”; the “half-life, average or usual” value was 11 h. Also, the “plasma protein binding” value with plasma proteins is “bound strongly to plasma proteins”.
In the case of `COc1cccc2c1C(=O)c1c(O)c3c(c(O)c1C2=O)C[C@@](O)(C(C)=O)C[C@@H]3O[C@H]1C[C@H](N)[C@H](O)[C@H](C)O1` [daunomycin], in data set [5], the “block of chloride channel / transport associated with p-glycoprotein” value was “blocked”. In the data set on p-glycoprotein [3], the “inhibition of / interaction with p-glycoprotein” value was “p-glycoprotein inhibitor”.
On to `COc1cccc2c1C(=O)c1c(O)c3c(c(O)c1C2=O)C[C@@](O)(C(C)=O)C[C@@H]3O[C@H]1C[C@H](N)[C@H](O)[C@H](C)O1` [daunorubicin, hydrochloride], for which the distribution half-life in data set [2] (human, in vivo, iv) is 0.75 h. For the same molecule, the “oral absorption” value in data set [2] (human, in vivo, po) is recorded as “Oral absorption is poor”. For the same molecule, the biliary secretion in data set [2] (human, in vivo) was about 40%. The half-life result in data set [2] (plasma/serum/terminal or elimination half-life) is “about 19 hr”. In addition, the “inhibition of amphiphilic cation transport” value is reported as “inhibited” in the data set with p-glycoprotein [6] and “inhibit” in the data set with p-glycoprotein [6] (listed as Daunorubicin).
Regarding `CC(C)OC(=O)C(C)(C)Oc1ccc(C(=O)c2ccc(Cl)cc2)cc1` [fenofibrate], the “potency relative to clofibrate” value in data set [4] (human, in vivo) is on record as “more potent than clofibrate”.
For `OCCN1CCN(CCCN2c3ccccc3Sc3ccc(C(F)(F)F)cc32)CC1` [fluphenazine], in data set [1], the “reversal of drug resistance” value is “reversed cellular resistance to various drugs only in p-glycoprotein expressing cell lines”.
`CC(=O)O[C@H]1C(=O)[C@@]2(C)[C@H]([C@H](OC(=O)c3ccccc3)[C@]3(O)C[C@H](OC(=O)[C@H](O)[C@@H](NC(=O)c4ccccc4)c4ccccc4)C(C)=C1C3(C)C)[C@]1(OC(C)=O)CO[C@@H]1C[C@@H]2O` [taxol]: the “inhibition of / interaction with p-glycoprotein” value in the data set with p-glycoprotein [3] is recorded as “interacted with p-glycoprotein”. Moreover, the “antitumor activity” value in the data set with tumors is “activity against malignant melanoma and carcinoma of the ovary”.
For `OCCN1CCN(CC/C=C2\c3ccccc3Sc3ccc(C(F)(F)F)cc32)CC1` [trans-flupenthixol], the clinical toxicity entry in data set [4] (human, in vivo) was “apparent lack of clinical toxicity”. The “reversal of drug resistance” value in data set [1] was “reversed cellular resistance to various drugs only in p-glycoprotein expressing cell lines; also recorded: fully reversed resistance to doxorubicin, vincristine, and colchicine”. Moreover, the “potency for reversing MDR relative to verapamil” value in data set [1] (equimolar concentrations) is recorded as “two- to three-fold more potent”.
As to `CN1CCN(CCCN2c3ccccc3Sc3ccc(C(F)(F)F)cc32)CC1` [trifluoperazine, 1OH-Phenothiazine, 10-[3-(4-methyl-1-piperazinyl)propyl]-2-(trifluoromethyl)-, dihydrochloride], the “inhibition of photoaffinity labeling of p-glycoprotein” value with p-glycoprotein [3] (dihydrochloride) is “poor inhibitors”; with p-glycoprotein [3] (setting [7]) it was “without inhibiting photoaffinity labeling”. Besides, the “reversal of drug resistance” value in data set [1] (dihydrochloride) was “effectively reverse multidrug resistance”; in data set [1] (setting [7]), “reverses multidrug resistance”.
Consider `CC[C@]1(O)C[C@H]2CN(CCc3c([nH]c4ccccc34)[C@@](C(=O)OC)(c3cc4c(cc3OC)N(C=O)[C@H]3[C@@](O)(C(=O)OC)[C@H](OC(C)=O)[C@]5(CC)C=CCN6CC[C@]43[C@@H]65)C2)C1` [vincristine], for which the “oral absorption” value in data set [2] (oral) is listed as “Unpredictable absorption”. Besides, the half-life result in data set [2] (plasma or terminal half-life) is on record as “about 24 hours”. For the same molecule, the Cmax in data set [2] (read-out: peak concentration in plasma, usual clinical doses) is about 400 nM. The inhibition of p-glycoprotein in the data set on p-glycoprotein [3] (10 μM) is recorded as 95%. Besides, in the data set with p-glycoprotein [3], the “inhibition of / interaction with p-glycoprotein” value is “p-glycoprotein inhibitor”. In addition, in the data set with p-glycoprotein [3] (vs verapamil, cyclosporine A, progesterone or anthracycline analogues), the “p-glycoprotein inhibition relative to comparator” value is given as “more potent than anthracycline analogues”. For the same molecule, in the data set on plasma proteins, the “plasma protein binding” value was “bind to plasma proteins”.
